The record followed here is patent US4415495A, “5,6;8,9-Tetrahydro-7H-dibenz(d,f)azonines” (Godecke Aktiengesellschaft, priority 1981, dated 1983).

Molecules are shown by their SMILES.

Data set [1] concerns rabbit eye. As to the kind of experiment: Local anesthetic action on the rabbit eye (corneal reflex). It is filed as in vivo, rabbits. The note with it: for Period of Action: observation discontinued after 60 minutes. As to the method:
The corneal reflex is induced in rabbits using a horse hair which bends with a pressure of about 250 mg (modification of the method described by M. von Frey, Beitrage zur Physiologie des Schmerzsinns, Vehr. d. Kgl. Sachs, Ges. d. Wiss. zu Leipzig, Math.-phys. Kl., 46, 185/1894; Untersuchungen uber die Sinnesfunktionen der menschlichen Haut, Leipzig, 1896). After instillation of local anesthetics into the conjunctival sac of the eye, the number of impacts with the horse hair which result in closure of the eyelid is increased. At intervals of 4 minutes, in each case a maximum of 100 successive impacts are carried out and such an action is taken as being 100%. The period of investigation is at most 60 minutes. The action of the compounds according to the present invention is compared with that of tetracaine and procainamide.
The following Table VII contains the results of the experiments on the rabbit eye. There are also given, in addition to the concentrations of the test solutions which were instilled into the conjunctival sac, the actions of the compounds in % (see description of the method), as well as their period of action. In each case, the observations were discontinued after 60 minutes.

A short description of data set [2]: in vivo. To be noted: mouse, po. As to the method: The compounds according to the present invention are administered intragastrally to male mice (NMRI) with a body weight of from 20 to 25 g. Each dosage group consists of 4 animals. The LD50 values are determined after having observed the animals for 7 days.
Data set [3] relates to guinea pig left ventricle. The data set can be described thus: Refractory time of electrically stimulated guinea pig left ventricles (organ bath). On the procedure:
The left ventricles of guinea pig hearts are electrically stimulated in an organ bath, the amplitude of contraction being recorded. By means of a second stimulus, the time is determined below which the heart muscle no longer reacts with a separately resolvable contraction. This time is defined as the refractory time.
The following Table II contains information concerning the maximum tested compound concentrations, as well as the average prolongation of the refractory time measured at this concentration in comparison with the initial value of, in each case, at least 6 experiments.

The subject of data set [4] is Rats with calcium chloride induced arrhythmias. As to the kind of experiment: Calcium chloride induced arrhythmias in narcotised rats (prophylactic i.v. administration). To be noted: for average period of arrhythmia: control 10.9 min. The data set is classed as in vivo. The text has this: By means of the intravenous infusion of a calcium chloride solution, […] induced in narcotised rats which, after termination of the infusion, continue for a certain period of time (modification of the method described by Malinow et al., Arch. Int. Pharmacodyn, 102, 266/1955). This arrhythmic phase is shortened by the prophylactic administration of antiarrhythmic drugs. […] The results of the experiments with calcium chloride induced arrhythmias on rats are summarized in the following Table I. The average period of arrhythmia is calculated from experiments with at least 10 animals.

Setting [5] is: Oryctolagus cuniculus, topical, concentration 1.0 %.
Where [6] appears, read: Oryctolagus cuniculus, topical, concentration 0.1 %.
Where [7] appears, read: Oryctolagus cuniculus, topical, concentration 0.5 %.
Where [8] appears, read: Oryctolagus cuniculus, topical, concentration 2.0 %.

In the case of `COc1ccc2c(c1)-c1c(ccc(OC)c1OC)CC(Cc1ccccc1)N(C)CC2` (racemic) [Example 5, (±)-6-Benzyl-7-methyl-5,6;8,9-tetrahydro-1,2,12-trimethoxy-7H-dibenz(d,f)azonine], the inhibition in vivo (commonly the drop in the measured response relative to a control, in per cent) at 1 % in data set [1] (setting [5]) worked out at 100%. The “Period of Action” value in data set [1] (concentration 1.0 %) is greater than 60 min. Moreover, in data set [2], the LD50 (as a rule, the dose expected to kill half of the subjects tested) at 168 h was roughly 1000 mg/kg. Moreover, the “average prolongation of the refractory time” value (shortened to “average prolongation”) in data set [3] (4.0 × 10^-6 g/ml in the bath) was 25 ms. The “average period of arrhythmia” value in data set [4] (5 mg/kg I.V.) was found to be 4.1 min.

For `COc1cccc(CC2Cc3ccc(OC)c(O)c3-c3cc(OC)ccc3CCN2C)c1` (single isomer, unassigned; (-)) [Example 2, (-)-6-(3'-Methoxybenzyl)-2,12-dimethoxy-1-hydroxy-7-methyl-5,6;8,9-tetrahydro-7H-dibenz(d,f)azonine], the inhibition in vivo at 0.1 % in data set [1] (setting [6]) amounted to 78%. The compound also showed an inhibition in vivo at 0.5 % in data set [1] (setting [7]) of 100%. In data set [1] (setting [5]), this compound gave an inhibition in vivo at 1 % of 100%. Further, the “Period of Action” value in data set [1] (concentration 0.1 %) was 46 min; in data set [1] (concentration 0.5 %), “about 52 Min”; in data set [1] (concentration 1.0 %), greater than 60 min. In data set [2], this compound came in with a median lethal dose (LD50) at 168 h of 1000 mg/kg. In data set [3] (8.0 × 10^-6 g/ml in the bath), the “average prolongation” value amounted to 46 ms. Besides, in data set [4] (10 mg/kg I.V.), the “average period of arrhythmia” value is 4.9 min.

`COc1ccc2c(c1)-c1c(ccc(OC)c1O)CC(Cc1ccc(F)cc1)N(C)CC2` (single isomer, unassigned; (-)) [Example 3, (-)-6-(4'-Fluorobenzyl)-2,12-dimethoxy-1-hydroxy-7-methyl-5,6;8,9-tetrahydro-7H-dibenz(d,f)azonine] displayed an inhibition in vivo at 0.5 % in data set [1] (setting [7]) of 100%. Moreover, the “Period of Action” value in data set [1] (concentration 0.5 %) was greater than 60 min. The 50% lethal dose (LD50) at 168 h in data set [2] amounted to 600 mg/kg. The “average prolongation” value in data set [3] (1.6 × 10^-5 g/ml in the bath) is 29 ms. Also, in data set [4] (10 mg/kg I.V.), the “average period of arrhythmia” value came to 5.4 min.

For the compound `COc1cccc(CC2Cc3ccc(OC)c(OC)c3-c3cc(OC)ccc3CCN2C)c1` (single isomer, unassigned; (-)) [Example 6, (-)-6-(3'-Methoxybenzyl)-7-methyl-5,6;8,9-tetrahydro-1,2,12-trimethoxy-7H-dibenz(d,f)azonine], the inhibition in vivo at 1 % in data set [1] (setting [5]) came out at 79%. Further, the inhibition in vivo at 2 % in data set [1] (setting [8]) was determined as 100%. Moreover, the “Period of Action” value in data set [1] (concentration 1.0 %) and in data set [1] (concentration 2.0 %) was greater than 60 min throughout. Also, the median lethal dose (LD50) at 168 h in data set [2] is roughly 300 mg/kg. Besides, in data set [4] (4 mg/kg I.V.), the “average period of arrhythmia” value was found to be 4.6 min.

`COc1cccc(CC2Cc3ccc(OC)c(OC(C)=O)c3-c3cc(OC)ccc3CCN2C)c1` (single isomer, unassigned; (-)) [Example 7, (-)-1-Acetoxy-6-(3'-methoxybenzyl)-7-methyl-5,6;8,9-tetrahydro-2,12-dimethoxy-7H-dibenz(d,f)azonine]: the inhibition in vivo at 0.5 % in data set [1] (setting [7]) is 63%. In data set [1] (setting [5]), this compound registered an inhibition in vivo at 1 % of 100%. Also, the “Period of Action” value in data set [1] (concentration 0.5 %) and in data set [1] (concentration 1.0 %) was greater than 60 min in each case. For the same compound, the 50% lethal dose (LD50) at 168 h in data set [2] stood at 900 mg/kg. For the same compound, the “average prolongation” value in data set [3] (4.0 × 10^-6 g/ml in the bath) was found to be 18 ms. In data set [4] (4 mg/kg I.V.), the “average period of arrhythmia” value amounted to 4.1 min.

`COc1ccc2c(c1)-c1c(ccc(OC)c1OC(C)=O)CC(Cc1ccccc1)N(C)CC2` (single isomer, unassigned; (-)) [Example 8, (-)-1-Acetoxy-6-benzyl-2,12-dimethoxy-7-methyl-5,6;8,9-tetrahydro-7H-dibenz(d,f)azonine] gave an inhibition in vivo at 0.5 % in data set [1] (setting [7]) of 74%. In data set [1] (setting [8]), this compound yielded an inhibition in vivo at 2 % of 100%. Besides, the “Period of Action” value in data set [1] (concentration 0.5 %) and in data set [1] (concentration 2.0 %) was greater than 60 min in each case. Also, the LD50 at 168 h in data set [2] worked out at 1200 mg/kg. Also, the “average prolongation” value in data set [3] (4.0 × 10^-6 g/ml in the bath) turned out to be 21 ms. Moreover, the “average period of arrhythmia” value in data set [4] (4 mg/kg I.V.) worked out at 5.7 min.

Consider `COc1ccc2c(c1)-c1c(ccc(OC)c1O)CC(Cc1c(Cl)cccc1Cl)N(C)CC2` (single isomer, unassigned; (-)) [Example 11, (-)-6-(2',6'-Dichlorobenzyl)-2,12-dimethoxy-7-methyl-1-hydroxy-5,6;8,9-tetrahydro-7H-dibenz(d,f)azonine], for which the inhibition in vivo at 1 % in data set [1] (setting [5]) was found to be 55%. The same compound gave an inhibition in vivo at 2 % in data set [1] (setting [8]) of 100%. Also, the “Period of Action” value in data set [1] (concentration 1.0 %) and in data set [1] (concentration 2.0 %) was greater than 60 min throughout. Moreover, the LD50 at 168 h in data set [2] is greater than 1600 mg/kg. Also, the “average prolongation” value in data set [3] (3.2 × 10^-5 g/ml in the bath) was 29 ms. The “average period of arrhythmia” value in data set [4] (8 mg/kg I.V.) turned out to be 7.7 min. In addition, in data set [4] (in comparison with control animals or procainamide), the “antiarrhythmic action / period of arrhythmia (in words)” value is listed as “just as good”.

Regarding `COc1ccc2c(c1)-c1c(ccc(OC)c1O)CC(Cc1cccc(C)c1)N(C)CC2` (single isomer, unassigned; (-)) [Example 12, (-)-6-(3'-Methylbenzyl)-2,12-dimethoxy-7-methyl-1-hydroxy-5,6;8,9-tetrahydro-7H-dibenz(d,f)azonine], the inhibition in vivo at 0.1 % in data set [1] (setting [6]) is 68%. In addition, in data set [1] (Oryctolagus cuniculus, topical, concentration 0.25 %), the inhibition in vivo at 0.25 % came to 100%. Further, the “Period of Action” value in data set [1] (concentration 0.1 %) is “about 56 Min”; in data set [1] (concentration 0.25 %), greater than 60 min. The LD50 at 168 h in data set [2] came to 1200 mg/kg. Besides, in data set [3] (6.4 × 10^-5 g/ml in the bath), the “average prolongation” value was found to be 51 ms. In data set [4] (5 mg/kg I.V.), the “average period of arrhythmia” value was found to be 6.4 min.

`CC[C@H]1[C@@H]2C[C@H]3[C@@H]4N(C)c5ccccc5[C@]45C[C@@H]([C@H]2[C@H]5O)N3[C@@H]1O` [Ajmaline, ajmaline, reference compound]: the “average prolongation” value in data set [3] (1.6 × 10^-5 g/ml in the bath) was determined as 16 ms.

`COc1ccc2c(c1)-c1c(ccc(OC)c1O)CC(Cc1ccccc1)NCC2` (stereo not shown) [Example 9, 6-Benzyl-2,12-dimethoxy-1-hydroxy-5,6;8,9-tetrahydro-7H-dibenz(d,f)azonine]: in data set [3] (1.6 × 10^-5 g/ml in the bath), the “average prolongation” value came out at 27 ms. In data set [4] (5 mg/kg I.V.), the “average period of arrhythmia” value came to 6.8 min.

On to `COc1ccc(CCN(C)CCCC(C#N)(c2ccc(OC)c(OC)c2)C(C)C)cc1OC` (stereo not shown) [Verapamil, verapamil, reference compound], for which the “average prolongation” value in data set [3] (1.6 × 10^-5 g/ml in the bath) is reported as 16 ms.

Turning to `O=C1NC(=O)C(c2ccccc2)(c2ccccc2)N1` [phenytoin, reference compound], the “average prolongation” value in data set [3] (1.6 × 10^-5 g/ml in the bath) was -6 ms. The “average period of arrhythmia” value in data set [4] (20 mg/kg I.V.) stood at 16.5 min.

`CCCCNc1ccc(C(=O)OCCN(C)C)cc1` [tetracaine, reference compound] showed an inhibition in vivo at 0.1 % in data set [1] (setting [6]) of 100%. Besides, the “Period of Action” value in data set [1] (concentration 0.1 %) was “about 44 Min”. For the same compound, in data set [1] (concentration not given there), the “duration of maximum activity strength” value was 44 min and the maximum activity strength stood at 100%.
